Experimental data reported in ChEMBL document CHEMBL3856198, “Synthesis of novel 17-(4'-formyl)pyrazolylandrosta-5,16-dienes and their derivatives as potent 17α-hydroxylase/C17,20-lyase inhibitors or antiproliferative agents depending on the substitution pattern of the heteroring” (Eur J Med Chem, 2016).

How the values were obtained:
Assay type in all cases: functional
[1] = Growth inhibition of human MDA-MB-231 cells at 10 uM after 72 hrs by MTT assay; settings: MDA-MB-231, 72 h, read-out: GI
[2] = Growth inhibition of human MCF7 cells at 30 uM after 72 hrs by MTT assay; settings: MCF7, 72 h, read-out: GI
[3] = Growth inhibition of human MDA-MB-361 cells at 10 uM after 72 hrs by MTT assay; settings: MDA-MB-361, 72 h, read-out: GI
[4] = Growth inhibition of human MDA-MB-361 cells at 30 uM after 72 hrs by MTT assay; settings: MDA-MB-361, 72 h, read-out: GI
[5] = Growth inhibition of human T47D cells at 10 uM after 72 hrs by MTT assay; settings: read-out: GI
[6] = Growth inhibition of human MDA-MB-231 cells at 30 uM after 72 hrs by MTT assay; settings: MDA-MB-231, 72 h, read-out: GI
[7] = Growth inhibition of human MCF7 cells at 10 uM after 72 hrs by MTT assay; settings: MCF7, 72 h, read-out: GI
[8] = Growth inhibition of human T47D cells at 30 uM after 72 hrs by MTT assay; settings: read-out: GI

Compound `Cc1ccc(-n2cc(C=O)c(C3=CC[C@H]4[C@@H]5CC=C6C[C@@H](O)CC[C@]6(C)[C@H]5CC[C@]34C)n2)cc1` has an inhibition of growth at 10 µM [1] of 58.9%, an inhibition of growth at 30 µM [2] of 72.6% and an inhibition of growth at 10 µM [3] of 57.3%. The inhibition of growth at 30 µM [4] was 75.8%, the inhibition of growth at 10 µM [5] was 47.2% and the inhibition of growth at 30 µM [6] was 76.9%. It also gave an inhibition of growth at 10 µM [7] of 47.8% and an inhibition of growth at 30 µM [8] of 74.8%.
Compound `C[C@]12CC[C@H](O)CC1=CC[C@@H]1[C@@H]2CC[C@]2(C)C(c3nn(-c4ccc([N+](=O)[O-])cc4)cc3C=O)=CC[C@@H]12` has an inhibition of growth at 10 µM [1] of 51.8%, an inhibition of growth at 30 µM [2] of 75.1% and an inhibition of growth at 10 µM [3] of 63.9%. It also gave an inhibition of growth at 30 µM [4] of 80%, an inhibition of growth at 10 µM [5] of 72.5% and an inhibition of growth at 30 µM [6] of 77%. It also gave an inhibition of growth at 10 µM [7] of 64.8% and an inhibition of growth at 30 µM [8] of 79.6%.
Work on `C[C@]12CC[C@H](O)CC1=CC[C@@H]1[C@@H]2CC[C@]2(C)C(c3nn(-c4ccc(C#N)cc4)cc3C=O)=CC[C@@H]12` yielded an inhibition of growth at 10 µM [1] of 49.1%, an inhibition of growth at 30 µM [2] of 80.2% and an inhibition of growth at 10 µM [3] of 60.8%. It also gave an inhibition of growth at 30 µM [4] of 74.3%, an inhibition of growth at 10 µM [5] of 66.9% and an inhibition of growth at 30 µM [6] of 93.1%. It also gave an inhibition of growth at 10 µM [7] of 64.4% and an inhibition of growth at 30 µM [8] of 86.4%.
In the case of `CC(=O)O[C@H]1CC[C@@]2(C)C(=CC[C@@H]3[C@@H]2CC[C@]2(C)C(c4nn(C)cc4C=O)=CC[C@@H]32)C1`, the inhibition of growth at 10 µM [1] is reported as under 20%, the inhibition of growth at 30 µM [2] is reported as 61.9% and the inhibition of growth at 10 µM [3] is reported as under 20%. The inhibition of growth at 30 µM [4] was 55.6%, the inhibition of growth at 10 µM [5] was under 20% and the inhibition of growth at 30 µM [6] was 26.2%. The inhibition of growth at 10 µM [7] was 30.9% and the inhibition of growth at 30 µM [8] was 65.2%.
In the case of `CC(=O)O[C@H]1CC[C@@]2(C)C(=CC[C@@H]3[C@@H]2CC[C@]2(C)C(c4nn(C(C)=O)cc4C#N)=CC[C@@H]32)C1`, the inhibition of growth at 10 µM [1] is reported as under 20%, the inhibition of growth at 30 µM [2] is reported as 70% and the inhibition of growth at 10 µM [3] is reported as under 20%. The inhibition of growth at 30 µM [4] was 64.6%, the inhibition of growth at 10 µM [5] was under 20% and the inhibition of growth at 30 µM [6] was 61.3%. The inhibition of growth at 10 µM [7] was under 20% and the inhibition of growth at 30 µM [8] was 63.9%.
For `CC(=O)O[C@H]1CC[C@@]2(C)C(=CC[C@@H]3[C@@H]2CC[C@]2(C)C(c4nn(-c5ccc(Br)cc5)cc4C=O)=CC[C@@H]32)C1`, the inhibition of growth at 10 µM [1] was 21.7%, the inhibition of growth at 30 µM [2] was 60.6% and the inhibition of growth at 10 µM [3] was 33.8%. The inhibition of growth at 30 µM [4] was 55.1%, the inhibition of growth at 10 µM [5] was 51.4% and the inhibition of growth at 30 µM [6] was 51.9%. It also gave an inhibition of growth at 10 µM [7] of 41.2% and an inhibition of growth at 30 µM [8] of 63.6%.
`Cn1cc(C#N)c(C2=CC[C@H]3[C@@H]4CC=C5C[C@@H](O)CC[C@]5(C)[C@H]4CC[C@]23C)n1` showed an inhibition of growth at 10 µM [1] of under 20%, an inhibition of growth at 30 µM [2] of 40.9% and an inhibition of growth at 10 µM [3] of under 20%. It also gave an inhibition of growth at 30 µM [4] of 32.5%, an inhibition of growth at 10 µM [5] of under 20% and an inhibition of growth at 30 µM [6] of 32.6%. The inhibition of growth at 10 µM [7] was under 20% and the inhibition of growth at 30 µM [8] was 29.6%.
`CC(=O)O[C@H]1CC[C@@]2(C)C(=CC[C@@H]3[C@@H]2CC[C@]2(C)C(c4nn(-c5ccc(Cl)cc5)cc4C=O)=CC[C@@H]32)C1` showed an inhibition of growth at 10 µM [1] of under 20%, an inhibition of growth at 30 µM [2] of 65.2% and an inhibition of growth at 10 µM [3] of 32.1%. For the same compound, the inhibition of growth at 30 µM [4] was 63.7%, the inhibition of growth at 10 µM [5] was 44.8% and the inhibition of growth at 30 µM [6] was 56.2%. For the same compound, the inhibition of growth at 10 µM [7] was 43.6% and the inhibition of growth at 30 µM [8] was 62.8%.
In the case of `Cn1cc(CO)c(C2=CC[C@H]3[C@@H]4CC=C5C[C@@H](O)CC[C@]5(C)[C@H]4CC[C@]23C)n1`, the inhibition of growth at 10 µM [1] is reported as under 20%, the inhibition of growth at 30 µM [2] is reported as 33.8% and the inhibition of growth at 10 µM [3] is reported as 32.5%. For the same compound, the inhibition of growth at 30 µM [4] was 47.1%, the inhibition of growth at 10 µM [5] was 37.4% and the inhibition of growth at 30 µM [6] was 43.6%. It also gave an inhibition of growth at 10 µM [7] of under 20% and an inhibition of growth at 30 µM [8] of 56.4%.
Work on `CC(=O)O[C@H]1CC[C@@]2(C)C(=CC[C@@H]3[C@@H]2CC[C@]2(C)C(c4nn(-c5ccccc5)cc4C=O)=CC[C@@H]32)C1` yielded an inhibition of growth at 10 µM [1] of 37.9%, an inhibition of growth at 30 µM [2] of 86.3% and an inhibition of growth at 10 µM [3] of 52.8%. The inhibition of growth at 30 µM [4] was 76.9%, the inhibition of growth at 10 µM [5] was 31.4% and the inhibition of growth at 30 µM [6] was 71.5%. It also gave an inhibition of growth at 10 µM [7] of 57.1% and an inhibition of growth at 30 µM [8] of 79.9%.
For `CC(=O)O[C@H]1CC[C@@]2(C)C(=CC[C@@H]3[C@@H]2CC[C@]2(C)C(c4nn(-c5ccc([N+](=O)[O-])cc5)cc4C=O)=CC[C@@H]32)C1`, the inhibition of growth at 10 µM [1] was under 20%, the inhibition of growth at 30 µM [2] was 51.9% and the inhibition of growth at 10 µM [3] was under 20%. The inhibition of growth at 30 µM [4] was 56.2%, the inhibition of growth at 10 µM [5] was under 20% and the inhibition of growth at 30 µM [6] was 22.7%. The inhibition of growth at 10 µM [7] was under 20% and the inhibition of growth at 30 µM [8] was 62.8%.
Compound `CC(=O)O[C@H]1CC[C@@]2(C)C(=CC[C@@H]3[C@@H]2CC[C@]2(C)C(c4nn(C)cc4C#N)=CC[C@@H]32)C1` has an inhibition of growth at 10 µM [1] of 30.5%, an inhibition of growth at 30 µM [2] of 50.3% and an inhibition of growth at 10 µM [3] of 30.8%. The inhibition of growth at 30 µM [4] was 53.1%, the inhibition of growth at 10 µM [5] was 21.7% and the inhibition of growth at 30 µM [6] was 34.9%. For the same compound, the inhibition of growth at 10 µM [7] was 41.8% and the inhibition of growth at 30 µM [8] was 60.4%.
`COc1ccc(-n2cc(CO)c(C3=CC[C@H]4[C@@H]5CC=C6C[C@@H](O)CC[C@]6(C)[C@H]5CC[C@]34C)n2)cc1` showed an inhibition of growth at 10 µM [1] of 69.3%, an inhibition of growth at 30 µM [2] of 75.5% and an inhibition of growth at 10 µM [3] of 64.7%. For the same compound, the inhibition of growth at 30 µM [4] was 86.7%, the inhibition of growth at 10 µM [5] was 62.2% and the inhibition of growth at 30 µM [6] was 92.9%. For the same compound, the inhibition of growth at 10 µM [7] was 51.8% and the inhibition of growth at 30 µM [8] was 79.6%.
Work on `COc1ccc(-n2cc(C=O)c(C3=CC[C@H]4[C@@H]5CC=C6C[C@@H](OC(C)=O)CC[C@]6(C)[C@H]5CC[C@]34C)n2)cc1` yielded an inhibition of growth at 10 µM [1] of under 20%, an inhibition of growth at 30 µM [2] of 77.7% and an inhibition of growth at 10 µM [3] of 32.8%. The inhibition of growth at 30 µM [4] was 66.7%, the inhibition of growth at 10 µM [5] was 33.9% and the inhibition of growth at 30 µM [6] was 54.4%. It also gave an inhibition of growth at 10 µM [7] of 43.8% and an inhibition of growth at 30 µM [8] of 69.1%.
`C[C@]12CC[C@H](O)CC1=CC[C@@H]1[C@@H]2CC[C@]2(C)C(c3nn(-c4ccc(Br)cc4)cc3C=O)=CC[C@@H]12` showed an inhibition of growth at 10 µM [1] of under 20%, an inhibition of growth at 30 µM [2] of 61% and an inhibition of growth at 10 µM [3] of 48.1%. It also gave an inhibition of growth at 30 µM [4] of 60.4%, an inhibition of growth at 10 µM [5] of 36.2% and an inhibition of growth at 30 µM [6] of 55.8%. It also gave an inhibition of growth at 10 µM [7] of 22.2% and an inhibition of growth at 30 µM [8] of 70.7%.
In the case of `Cn1cc(C=O)c(C2=CC[C@H]3[C@@H]4CC=C5C[C@@H](O)CC[C@]5(C)[C@H]4CC[C@]23C)n1`, the inhibition of growth at 10 µM [1] is reported as 86.8%, the inhibition of growth at 30 µM [2] is reported as 48.6% and the inhibition of growth at 10 µM [3] is reported as 62.1%. The inhibition of growth at 30 µM [4] was 70%, the inhibition of growth at 10 µM [5] was 62% and the inhibition of growth at 30 µM [6] was 93.4%. It also gave an inhibition of growth at 10 µM [7] of 42.2% and an inhibition of growth at 30 µM [8] of 70.4%.
Compound `CC(=O)O[C@H]1CC[C@@]2(C)C(=CC[C@@H]3[C@@H]2CC[C@]2(C)C(c4n[nH]cc4C=O)=CC[C@@H]32)C1` has an inhibition of growth at 10 µM [1] of under 20%, an inhibition of growth at 30 µM [2] of 83.5% and an inhibition of growth at 10 µM [3] of under 20%. For the same compound, the inhibition of growth at 30 µM [4] was 64.2%, the inhibition of growth at 10 µM [5] was under 20% and the inhibition of growth at 30 µM [6] was under 20%. The inhibition of growth at 10 µM [7] was under 20% and the inhibition of growth at 30 µM [8] was 63.3%.
